# Test results taken from patent US20110129883A1, “INACTIVATION OF GENES OF THE MEP PATHWAY” (BIOAGENCY AG, priority 2001, published 2011).
# Tested on: E. coli transformed with the synthetic operon
# Format: cell-based
smiles,measurement,value
O=CN(O)CCCP(=O)(O)O [fosmidomycin],bacterial growth under fosmidomycin,at a reduced rate and died
